“And” between values parts separate entries of the source, which are not always exact repeats. Equal values may be shown once. Toxic doses and inconclusive results are not listed.
System: P388 leukemia ip, CD2F1 mice, survival T/C
Experiment: NCI In Vivo Anticancer Drug Screen. Data for tumor model P388 Leukemia (intraperitoneal) in CD2F1 (CDF1) mice
Conditions: endpoint: median survival time, higher = longer survival
How it was run: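 Mice carrying the transplanted tumor received test compound or vehicle. Survival was recorded in each group, and the value is the treated-group measurement divided by that of the vehicle-treated control group.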

[1] = dose: 25.0 mg/kg/injection, schedule: Q01DX005 (ip), vehicle: saline with Tween-80
[2] = dose: 50.0 mg/kg/injection, schedule: Q01DX005 (ip), vehicle: saline with Tween-80
[3] = dose: 100.0 mg/kg/injection, schedule: Q01DX005 (ip), vehicle: saline with Tween-80
[4] = dose: 200.0 mg/kg/injection, schedule: Q01DX005 (ip), vehicle: saline with Tween-80
[5] = dose: 12.5 mg/kg/injection, schedule: Q01DX005 (ip), vehicle: saline
[6] = dose: 25.0 mg/kg/injection, schedule: Q01DX005 (ip), vehicle: saline
[7] = dose: 12.5 mg/kg/injection, schedule: Q01DX009 (ip), vehicle: saline
[8] = dose: 25.0 mg/kg/injection, schedule: Q01DX009 (ip), vehicle: saline
[9] = dose: 50.0 mg/kg/injection, schedule: Q01DX009 (ip), vehicle: saline
[10] = dose: 200.0 mg/kg/injection, schedule: Q01DX009 (ip), vehicle: saline
[11] = dose: 100.0 mg/kg/injection, schedule: Q01DX009 (ip), vehicle: saline with Tween-80
[12] = dose: 100.0 mg/kg/injection, schedule: Q04DX003 (ip), vehicle: saline with Tween-80
[13] = dose: 60.0 mg/kg/injection, schedule: Q01DX005 (ip), vehicle: saline with Tween-80
[14] = dose: 120.0 mg/kg/injection, schedule: Q01DX005 (ip), vehicle: saline with Tween-80
[15] = dose: 240.0 mg/kg/injection, schedule: Q01DX005 (ip), vehicle: saline with Tween-80
[16] = dose: 25.0 mg/kg/injection, schedule: Q01DX005 (ip), vehicle: Klucel (hydroxypropylcellulose) (HPC)
[17] = dose: 50.0 mg/kg/injection, schedule: Q01DX005 (ip), vehicle: Klucel (hydroxypropylcellulose) (HPC)
[18] = dose: 100.0 mg/kg/injection, schedule: Q01DX005 (ip), vehicle: Klucel (hydroxypropylcellulose) (HPC)
[19] = dose: 50.0 mg/kg/injection, schedule: Q01DX009 (ip), vehicle: saline with Tween-80

C[C@]12CC[C@H]3[C@@H](CC[C@H]4N(CCCl)CCC[C@]34C)[C@@H]1CC[C@@H]2O
T/C (dose: 25.0 mg/kg/injection, schedule: Q01DX001 (ip), vehicle: saline): 108 % of control

Clc1ccc(N=Cc2ccc(C=Nc3ccc(Cl)cn3)cc2)nc1
T/C (dose: 50.0 mg/kg/injection, schedule: Q01DX009 (ip), vehicle: Klucel (hydroxypropylcellulose) (HPC)): 91 % of control
T/C (dose: 100.0 mg/kg/injection, schedule: Q01DX009 (ip), vehicle: Klucel (hydroxypropylcellulose) (HPC)): 94 % of control
T/C (dose: 200.0 mg/kg/injection, schedule: Q01DX009 (ip), vehicle: Klucel (hydroxypropylcellulose) (HPC)): 93 % of control

O=C(N/N=C/c1ccco1)c1ccc(OCc2nc3ccccc3[nH]2)cc1
T/C [1]: 97 % of control
T/C [2]: 94 % of control
T/C [3]: 87 % of control
T/C [4]: 94 % of control

C/C=N/NCCC#N
T/C (dose: 6.25 mg/kg/injection, schedule: Q01DX005 (ip), vehicle: saline): 100 % of control
T/C [5]: 100 % of control
T/C [6]: 90 % of control

CCCCCCCCCCCCCCCCS(=O)(=O)N/N=c1\cc(-c2ccccc2Cl)c2ccccc2n1C
T/C [7]: 92 % of control
T/C [8]: 90 % of control
T/C [9]: 89 % of control and 90 % of control
T/C [10]: 89 % of control

Cc1ccc(-c2cc(Cl)c3cc(S(=O)(=O)F)ccc3n2)cc1
T/C [11]: 104 % of control
T/C [12]: 100 % of control
T/C (dose: 200.0 mg/kg/injection, schedule: Q01DX009 (ip), vehicle: saline with Tween-80): 100 % of control
T/C (dose: 200.0 mg/kg/injection, schedule: Q04DX003 (ip), vehicle: saline with Tween-80): 100 % of control
T/C (dose: 400.0 mg/kg/injection, schedule: Q01DX009 (ip), vehicle: saline with Tween-80): 104 % of control
T/C (dose: 400.0 mg/kg/injection, schedule: Q04DX003 (ip), vehicle: saline with Tween-80): 100 % of control

COC(=O)C1CC(C(=O)OC)C2C(C(=O)OC)CC(C(=O)OC)C12 (stereo not drawn)
T/C [13]: 99 % of control
T/C [14]: 96 % of control
T/C [15]: 99 % of control

CC1(C)C2CCC1(C)C(N1C(=O)N=NC1=O)C2 (stereo not drawn)
T/C (dose: 12.5 mg/kg/injection, schedule: Q01DX005 (ip), vehicle: saline with Tween-80): 100 % of control
T/C [1]: 103 % of control
T/C [2]: 103 % of control and 91 % of control
T/C [4]: 104 % of control

N#Cc1ccc[n+](Cc2c(Cl)cccc2Cl)c1
T/C (dose: 6.25 mg/kg/injection, schedule: Q01DX009 (ip), vehicle: saline): 121 % of control
T/C [7]: 108 % of control and 112 % of control
T/C [8]: 101 % of control and 115 % of control
T/C [9]: 110 % of control and 97 % of control

CCOC(=O)C12C3C(=O)N(CC)C(=O)C3ON1OC1C(=O)N(CC)C(=O)C12 (stereo not drawn)
T/C [13]: 100 % of control
T/C [14]: 100 % of control
T/C [15]: 95 % of control

C#CO[C@@H]1C[C@H](C)CCC1C(C)C (stereo partly drawn)
T/C [13]: 100 % of control
T/C [14]: 106 % of control

COc1cc(-c2nnc(C3CCC(=O)N3Cc3ccccc3)o2)cc(OC)c1OC (stereo not drawn)
T/C [13]: 103 % of control
T/C [14]: 100 % of control
T/C [15]: 97 % of control

O=C(/C=C/c1ccc(O)c(O)c1)NCC(=O)NC(Cc1ccccc1)C(=O)O (stereo not drawn)
T/C [2]: 99 % of control
T/C [3]: 100 % of control
T/C [4]: 103 % of control

COCc1cccnc1
T/C [16]: 97 % of control
T/C [17]: 93 % of control
T/C [18]: 88 % of control

CCC(c1ccc(OC)cc1)C(NCC(=O)NNC(=S)NCc1ccccc1)c1ccc(OC)cc1 (stereo not drawn)
T/C (dose: 100.0 mg/kg/injection, schedule: Q01DX001 (ip), vehicle: saline with Tween-80): 92 % of control
T/C (dose: 200.0 mg/kg/injection, schedule: Q01DX001 (ip), vehicle: saline with Tween-80): 99 % of control
T/C (dose: 400.0 mg/kg/injection, schedule: Q01DX001 (ip), vehicle: saline with Tween-80): 99 % of control

Nc1c(Cl)c(Cl)c(Br)c(Cl)c1Cl
T/C [19]: 92 % of control
T/C [11]: 90 % of control

CC(=O)Oc1cccc2c1ccc1nonc12
T/C [2]: 88 % of control
T/C [3]: 88 % of control
T/C [4]: 88 % of control

CCCCOCN(COCCCC)C12CC3CC(CC(C3)C1)C2
T/C [19]: 113 % of control

O=C1NCCc2ccc(cc2)OC2CCNC2C(=O)N2CCCC12 (stereo not drawn)
T/C (dose: 12.5 mg/kg/injection, schedule: Q01DX005 (ip), vehicle: Klucel (hydroxypropylcellulose) (HPC)): 96 % of control
T/C [16]: 107 % of control
T/C [17]: 100 % of control

O=N[O-].O=N[O-].[I][Pt][I]
T/C [5]: 116 % of control and 117 % of control
T/C [6]: 124 % of control
T/C (dose: 50.0 mg/kg/injection, schedule: Q01DX005 (ip), vehicle: saline): 105 % of control
T/C (dose: 100.0 mg/kg/injection, schedule: Q01DX005 (ip), vehicle: saline): 124 % of control

N=C(N)c1ccc(OCCCOc2ccc(C(=N)N)cc2Br)c(Br)c1
T/C (dose: 6.25 mg/kg/injection, schedule: Q04DX003 (ip), vehicle: saline): 100 % of control
T/C (dose: 12.5 mg/kg/injection, schedule: Q04DX003 (ip), vehicle: saline): 109 % of control
T/C [8]: 160 % of control
T/C (dose: 25.0 mg/kg/injection, schedule: Q04DX003 (ip), vehicle: saline): 113 % of control
T/C (dose: 33.0 mg/kg/injection, schedule: Q04DX003 (ip), vehicle: saline): 113 % of control
T/C [9]: 90 % of control
T/C (dose: 50.0 mg/kg/injection, schedule: Q04DX003 (ip), vehicle: saline): 113 % of control

Nc1nnc2nc(C(C(=O)c3ccc(F)cc3)c3nc4nnc(N)n4[nH]c3=O)c(=O)[nH]n12
T/C [2]: 98 % of control
T/C [3]: 92 % of control
T/C [4]: 91 % of control

Cc1nc2c([N+](=O)[O-])c(NCCCc3ccccc3)c([N+](=O)[O-])cc2[nH]1
T/C (dose: 50.0 mg/kg/injection, schedule: Q04DX003 (ip), vehicle: saline with Tween-80): 94 % of control
T/C [12]: 100 % of control and 96 % of control

O=C(NCCNC(=O)[C@H]1CCCN1)[C@H]1CCCN1
T/C (dose: 60.0 mg/kg/injection, schedule: Q01DX005 (ip), vehicle: saline): 98 % of control
T/C (dose: 120.0 mg/kg/injection, schedule: Q01DX005 (ip), vehicle: saline): 91 % of control
T/C (dose: 240.0 mg/kg/injection, schedule: Q01DX005 (ip), vehicle: saline): 93 % of control

NC(CC(=O)O)C(=O)OCc1ccccc1 (stereo not drawn)
T/C [8]: 97 % of control
T/C [9]: 100 % of control
T/C (dose: 100.0 mg/kg/injection, schedule: Q01DX009 (ip), vehicle: saline): 100 % of control
T/C [10]: 98 % of control

Cc1cc(=NO)cc(C)n1O
T/C (dose: 25.0 mg/kg/injection, schedule: Q01DX005 (ip), vehicle: distilled water + alcohol): 113 % of control
T/C (dose: 50.0 mg/kg/injection, schedule: Q01DX005 (ip), vehicle: distilled water + alcohol): 113 % of control and 123 % of control
T/C (dose: 50.0 mg/kg/injection, schedule: Q01DX005 (ip), vehicle: water): 115 % of control
T/C (dose: 100.0 mg/kg/injection, schedule: Q01DX005 (ip), vehicle: distilled water + alcohol): 121 % of control
T/C (dose: 100.0 mg/kg/injection, schedule: Q01DX005 (ip), vehicle: water): 106 % of control
T/C (dose: 200.0 mg/kg/injection, schedule: Q01DX005 (ip), vehicle: water): 118 % of control

c1ccc(CCn2c(-c3ccncc3)nc3ccccc32)nc1
T/C [16]: 109 % of control
T/C [17]: 104 % of control
T/C [18]: 107 % of control
T/C (dose: 200.0 mg/kg/injection, schedule: Q01DX005 (ip), vehicle: Klucel (hydroxypropylcellulose) (HPC)): 105 % of control

CCc1cccc2c(NCCCCCCCCNc3c4ccccc4nc4c(CC)cccc34)c3ccccc3nc12
T/C (dose: 0.63 mg/kg/injection, schedule: Q01DX005 (ip), vehicle: other): 110 % of control
T/C (dose: 1.25 mg/kg/injection, schedule: Q01DX005 (ip), vehicle: other): 110 % of control
T/C (dose: 2.5 mg/kg/injection, schedule: Q01DX005 (ip), vehicle: other): 122 % of control
T/C (dose: 3.75 mg/kg/injection, schedule: Q01DX005 (ip), vehicle: other): 104 % of control
T/C (dose: 5.0 mg/kg/injection, schedule: Q01DX005 (ip), vehicle: other): 113 % of control
T/C (dose: 7.5 mg/kg/injection, schedule: Q01DX005 (ip), vehicle: other): 118 % of control
T/C (dose: 10.0 mg/kg/injection, schedule: Q## X009 (ip), vehicle: lactic acid): 110 % of control

— PubChem BioAssay AID330 (DTP/NCI, 2004)
